According to article PMC11702115 (BMC Biology, 2025):

Legend:
OfurIR75/OfurIR8a = OfurIR75/OfurIR8a (Ostrinia furnacalis, UniProt A0A0F7QIG0); experiment: two-electrode voltage clamp, Xenopus oocytes; assay type: cell-based; settings: agonist, IR8a co-expressed, 10 uM screen, -80 mV, pH 7.6
HarmOR52 (with HarmOrco) = target: T1, HarmOR52 (with HarmOrco) (Helicoverpa armigera, UniProt A0A7T3KAH2); experiment: two-electrode voltage clamp, Xenopus oocytes; assay type: cell-based; settings: agonist; Orco co-expressed; 100 uM screen, dose series; -80 mV, pH 7.6
T1 sequence (A0A7T3KAH2 1-419): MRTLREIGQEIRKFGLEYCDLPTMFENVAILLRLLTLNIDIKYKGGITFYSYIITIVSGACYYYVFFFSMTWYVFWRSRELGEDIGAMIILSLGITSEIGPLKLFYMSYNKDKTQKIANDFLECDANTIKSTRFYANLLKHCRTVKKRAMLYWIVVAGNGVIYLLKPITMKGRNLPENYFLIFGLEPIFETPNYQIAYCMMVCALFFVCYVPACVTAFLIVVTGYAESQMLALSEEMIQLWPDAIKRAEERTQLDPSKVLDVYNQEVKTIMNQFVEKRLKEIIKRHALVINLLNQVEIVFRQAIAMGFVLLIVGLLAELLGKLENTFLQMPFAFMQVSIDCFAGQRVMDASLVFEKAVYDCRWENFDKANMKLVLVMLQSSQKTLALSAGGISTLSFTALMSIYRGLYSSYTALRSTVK

Sequence of OfurIR75/OfurIR8a (A0A0F7QIG0 19-626): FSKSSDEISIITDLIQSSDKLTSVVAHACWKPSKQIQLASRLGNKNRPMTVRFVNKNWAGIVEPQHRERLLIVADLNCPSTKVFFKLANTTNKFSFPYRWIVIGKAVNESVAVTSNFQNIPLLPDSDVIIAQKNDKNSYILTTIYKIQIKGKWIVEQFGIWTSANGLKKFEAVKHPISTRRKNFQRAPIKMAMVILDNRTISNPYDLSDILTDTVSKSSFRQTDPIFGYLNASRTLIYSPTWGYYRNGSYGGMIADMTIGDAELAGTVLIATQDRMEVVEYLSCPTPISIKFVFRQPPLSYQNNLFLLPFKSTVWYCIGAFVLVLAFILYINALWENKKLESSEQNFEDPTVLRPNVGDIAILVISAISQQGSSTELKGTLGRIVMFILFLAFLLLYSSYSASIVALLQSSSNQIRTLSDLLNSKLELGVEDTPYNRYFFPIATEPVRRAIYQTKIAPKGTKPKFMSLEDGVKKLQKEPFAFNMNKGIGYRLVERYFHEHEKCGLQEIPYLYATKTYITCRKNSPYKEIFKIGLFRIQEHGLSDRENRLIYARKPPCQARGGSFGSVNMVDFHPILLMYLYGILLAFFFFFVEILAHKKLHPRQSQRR
Sequence of OfurIR75/OfurIR8a (A0A0F7QED2 20-902 partner): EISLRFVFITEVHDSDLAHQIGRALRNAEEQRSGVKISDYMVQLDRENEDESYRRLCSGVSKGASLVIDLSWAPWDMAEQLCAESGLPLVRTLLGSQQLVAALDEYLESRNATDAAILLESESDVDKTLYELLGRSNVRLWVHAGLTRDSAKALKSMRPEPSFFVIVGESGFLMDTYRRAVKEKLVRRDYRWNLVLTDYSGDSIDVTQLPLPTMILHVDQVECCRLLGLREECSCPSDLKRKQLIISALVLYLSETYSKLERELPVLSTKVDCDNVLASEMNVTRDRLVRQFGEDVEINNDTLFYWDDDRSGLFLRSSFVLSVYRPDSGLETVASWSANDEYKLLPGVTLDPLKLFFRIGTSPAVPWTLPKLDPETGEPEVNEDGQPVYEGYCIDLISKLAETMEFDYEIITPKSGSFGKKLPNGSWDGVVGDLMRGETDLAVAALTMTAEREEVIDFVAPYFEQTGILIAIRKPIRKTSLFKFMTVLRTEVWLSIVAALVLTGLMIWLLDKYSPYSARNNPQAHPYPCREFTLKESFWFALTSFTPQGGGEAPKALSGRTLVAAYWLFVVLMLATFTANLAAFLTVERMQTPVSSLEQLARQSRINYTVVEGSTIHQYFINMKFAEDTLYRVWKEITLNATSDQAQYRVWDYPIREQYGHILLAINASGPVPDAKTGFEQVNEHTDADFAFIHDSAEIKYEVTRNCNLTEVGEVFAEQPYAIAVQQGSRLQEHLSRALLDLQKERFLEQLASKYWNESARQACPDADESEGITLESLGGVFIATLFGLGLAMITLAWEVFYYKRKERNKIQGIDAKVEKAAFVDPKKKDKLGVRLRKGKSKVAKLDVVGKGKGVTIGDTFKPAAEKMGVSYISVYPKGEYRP

| SMILES | two-electrode voltage clamp, Xenopus oocytes (OfurIR75/OfurIR8a) | two-electrode voltage clamp, Xenopus oocytes (OfurIR75/OfurIR8a; dose series) | two-electrode voltage clamp, Xenopus oocytes (HarmOR52 (with HarmOrco)) |
| --- | --- | --- | --- |
| CCCCCCC(=O)O [heptanoic acid] | Weaker responses were elicited by heptanoic acid and octanoic acid | – | – |
| CCCCCC(=O)O [hexanoic acid] | – | OfurIR75/OfurIR8a responded strongly with similar magnitudes to pentanoic acid and hexanoic acid | – |
| CC(C)CCO [isoamyl alcohol] | – | – | receptors from this clade exhibited similar response profiles, with isoamyl alcohol as the primary ligand |
| CCCCCCCC(=O)O [octanoic acid] | Weaker responses were elicited by heptanoic acid and octanoic acid | – | – |
| CCCCC(=O)O [pentanoic acid] | – | OfurIR75/OfurIR8a responded strongly with similar magnitudes to pentanoic acid and hexanoic acid | – |
| CCCCCO [pentanol] | – | – | dose-dependent, with a higher sensitivity to isoamyl alcohol compared to pentanol |
